Test in all cases: biochemical
Holding throughout (design): DiscoveRx KINOMEscan active site-directed competition binding; percent of control kinase bound to immobilised ligand

The target in one assay is ALK(C1156Y) (Homo sapiens, UniProt Q9UM73, C1156Y).
In assay [1] the target is T1, TYK2(JH2domain-pseudokinase) (Homo sapiens, UniProt P29597).
T1 construct: JH2domain-pseudokinase

The target of a further assay is T2, PIP5K2B (Homo sapiens, UniProt P78356).
T2 construct: gene PIP4K2B
T2 sequence (P78356 1-416): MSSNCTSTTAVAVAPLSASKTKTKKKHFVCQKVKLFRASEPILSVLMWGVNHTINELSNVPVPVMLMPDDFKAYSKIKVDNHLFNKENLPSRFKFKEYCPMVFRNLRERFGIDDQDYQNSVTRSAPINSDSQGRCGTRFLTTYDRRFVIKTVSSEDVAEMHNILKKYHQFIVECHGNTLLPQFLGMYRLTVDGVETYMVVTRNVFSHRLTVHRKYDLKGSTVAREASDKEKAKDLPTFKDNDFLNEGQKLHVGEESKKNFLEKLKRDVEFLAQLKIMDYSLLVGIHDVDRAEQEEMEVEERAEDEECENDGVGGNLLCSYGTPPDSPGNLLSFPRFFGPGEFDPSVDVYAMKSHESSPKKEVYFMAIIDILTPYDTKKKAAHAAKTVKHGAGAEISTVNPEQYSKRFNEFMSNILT

The target of another assay is T3, EPHB3 (Homo sapiens, UniProt P54753).
T3 sequence (P54753 1-998): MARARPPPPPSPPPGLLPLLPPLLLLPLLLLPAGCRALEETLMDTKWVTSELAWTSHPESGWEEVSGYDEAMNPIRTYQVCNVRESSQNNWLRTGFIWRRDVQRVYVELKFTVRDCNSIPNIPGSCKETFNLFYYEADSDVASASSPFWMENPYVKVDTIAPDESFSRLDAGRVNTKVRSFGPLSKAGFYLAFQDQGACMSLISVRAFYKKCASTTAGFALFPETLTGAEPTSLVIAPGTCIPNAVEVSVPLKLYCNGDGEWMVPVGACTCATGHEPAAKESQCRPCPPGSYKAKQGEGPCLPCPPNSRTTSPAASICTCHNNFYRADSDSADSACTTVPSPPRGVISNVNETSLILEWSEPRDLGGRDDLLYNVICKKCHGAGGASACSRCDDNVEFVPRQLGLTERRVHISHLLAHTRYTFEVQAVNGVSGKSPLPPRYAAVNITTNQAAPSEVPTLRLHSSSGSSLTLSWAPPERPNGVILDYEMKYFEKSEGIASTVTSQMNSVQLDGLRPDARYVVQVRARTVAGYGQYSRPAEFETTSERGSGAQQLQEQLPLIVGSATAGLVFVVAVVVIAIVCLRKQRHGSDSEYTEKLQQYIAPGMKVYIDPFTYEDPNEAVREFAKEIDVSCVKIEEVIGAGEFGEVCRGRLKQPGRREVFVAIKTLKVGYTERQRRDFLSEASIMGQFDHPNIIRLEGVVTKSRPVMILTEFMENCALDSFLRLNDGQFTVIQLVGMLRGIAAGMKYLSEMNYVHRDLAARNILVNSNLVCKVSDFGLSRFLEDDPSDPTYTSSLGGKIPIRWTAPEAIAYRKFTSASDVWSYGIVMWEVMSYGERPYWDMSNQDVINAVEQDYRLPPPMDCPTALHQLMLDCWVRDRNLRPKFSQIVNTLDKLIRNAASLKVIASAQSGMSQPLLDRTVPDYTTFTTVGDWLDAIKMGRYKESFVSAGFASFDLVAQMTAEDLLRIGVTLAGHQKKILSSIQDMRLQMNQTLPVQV

A further assay deals with T4, EPHB6 (Homo sapiens, UniProt O15197).
T4 sequence (O15197 1-1021): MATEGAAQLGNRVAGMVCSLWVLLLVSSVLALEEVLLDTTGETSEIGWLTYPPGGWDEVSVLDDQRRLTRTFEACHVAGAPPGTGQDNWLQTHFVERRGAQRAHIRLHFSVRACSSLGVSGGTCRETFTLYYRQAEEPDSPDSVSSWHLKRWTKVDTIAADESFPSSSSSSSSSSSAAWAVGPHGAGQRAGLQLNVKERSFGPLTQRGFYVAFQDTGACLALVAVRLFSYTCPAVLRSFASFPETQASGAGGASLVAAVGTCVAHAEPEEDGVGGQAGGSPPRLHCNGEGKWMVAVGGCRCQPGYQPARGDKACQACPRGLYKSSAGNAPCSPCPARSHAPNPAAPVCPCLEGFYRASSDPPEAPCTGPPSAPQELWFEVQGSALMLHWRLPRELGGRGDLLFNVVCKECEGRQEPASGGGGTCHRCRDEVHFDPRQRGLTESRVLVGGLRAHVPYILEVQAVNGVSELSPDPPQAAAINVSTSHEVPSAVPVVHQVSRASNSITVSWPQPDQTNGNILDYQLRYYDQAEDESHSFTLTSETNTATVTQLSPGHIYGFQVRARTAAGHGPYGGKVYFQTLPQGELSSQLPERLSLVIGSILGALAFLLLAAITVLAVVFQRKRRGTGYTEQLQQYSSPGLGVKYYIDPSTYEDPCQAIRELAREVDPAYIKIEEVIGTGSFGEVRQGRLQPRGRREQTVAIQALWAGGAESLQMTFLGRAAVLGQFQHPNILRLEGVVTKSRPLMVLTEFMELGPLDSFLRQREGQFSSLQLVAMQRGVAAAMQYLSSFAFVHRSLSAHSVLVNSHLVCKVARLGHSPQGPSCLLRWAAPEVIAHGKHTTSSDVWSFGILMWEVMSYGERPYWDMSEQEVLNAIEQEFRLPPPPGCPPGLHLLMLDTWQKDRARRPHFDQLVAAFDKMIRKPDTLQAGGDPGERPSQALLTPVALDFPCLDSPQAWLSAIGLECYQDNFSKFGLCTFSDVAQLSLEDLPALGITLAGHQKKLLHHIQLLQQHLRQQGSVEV

[2] abbreviates: read-out: Rucaparib / %Ctrl @ 10000nM, binding competition, % of control.
Where [3] appears, read: read-out: Talazoparib (BMN 673) / %Ctrl @ 10000nM.
Setting [4] is: read-out: Niraparib (MK-4827) / %Ctrl @ 10000nM.
Setting [5] is: read-out: Olaparib / %Ctrl @ 10000nM.

Where two headings read alike, the source gives them in different places.

Chain of ALK(C1156Y) (Q9UM73 whole entry C1156Y): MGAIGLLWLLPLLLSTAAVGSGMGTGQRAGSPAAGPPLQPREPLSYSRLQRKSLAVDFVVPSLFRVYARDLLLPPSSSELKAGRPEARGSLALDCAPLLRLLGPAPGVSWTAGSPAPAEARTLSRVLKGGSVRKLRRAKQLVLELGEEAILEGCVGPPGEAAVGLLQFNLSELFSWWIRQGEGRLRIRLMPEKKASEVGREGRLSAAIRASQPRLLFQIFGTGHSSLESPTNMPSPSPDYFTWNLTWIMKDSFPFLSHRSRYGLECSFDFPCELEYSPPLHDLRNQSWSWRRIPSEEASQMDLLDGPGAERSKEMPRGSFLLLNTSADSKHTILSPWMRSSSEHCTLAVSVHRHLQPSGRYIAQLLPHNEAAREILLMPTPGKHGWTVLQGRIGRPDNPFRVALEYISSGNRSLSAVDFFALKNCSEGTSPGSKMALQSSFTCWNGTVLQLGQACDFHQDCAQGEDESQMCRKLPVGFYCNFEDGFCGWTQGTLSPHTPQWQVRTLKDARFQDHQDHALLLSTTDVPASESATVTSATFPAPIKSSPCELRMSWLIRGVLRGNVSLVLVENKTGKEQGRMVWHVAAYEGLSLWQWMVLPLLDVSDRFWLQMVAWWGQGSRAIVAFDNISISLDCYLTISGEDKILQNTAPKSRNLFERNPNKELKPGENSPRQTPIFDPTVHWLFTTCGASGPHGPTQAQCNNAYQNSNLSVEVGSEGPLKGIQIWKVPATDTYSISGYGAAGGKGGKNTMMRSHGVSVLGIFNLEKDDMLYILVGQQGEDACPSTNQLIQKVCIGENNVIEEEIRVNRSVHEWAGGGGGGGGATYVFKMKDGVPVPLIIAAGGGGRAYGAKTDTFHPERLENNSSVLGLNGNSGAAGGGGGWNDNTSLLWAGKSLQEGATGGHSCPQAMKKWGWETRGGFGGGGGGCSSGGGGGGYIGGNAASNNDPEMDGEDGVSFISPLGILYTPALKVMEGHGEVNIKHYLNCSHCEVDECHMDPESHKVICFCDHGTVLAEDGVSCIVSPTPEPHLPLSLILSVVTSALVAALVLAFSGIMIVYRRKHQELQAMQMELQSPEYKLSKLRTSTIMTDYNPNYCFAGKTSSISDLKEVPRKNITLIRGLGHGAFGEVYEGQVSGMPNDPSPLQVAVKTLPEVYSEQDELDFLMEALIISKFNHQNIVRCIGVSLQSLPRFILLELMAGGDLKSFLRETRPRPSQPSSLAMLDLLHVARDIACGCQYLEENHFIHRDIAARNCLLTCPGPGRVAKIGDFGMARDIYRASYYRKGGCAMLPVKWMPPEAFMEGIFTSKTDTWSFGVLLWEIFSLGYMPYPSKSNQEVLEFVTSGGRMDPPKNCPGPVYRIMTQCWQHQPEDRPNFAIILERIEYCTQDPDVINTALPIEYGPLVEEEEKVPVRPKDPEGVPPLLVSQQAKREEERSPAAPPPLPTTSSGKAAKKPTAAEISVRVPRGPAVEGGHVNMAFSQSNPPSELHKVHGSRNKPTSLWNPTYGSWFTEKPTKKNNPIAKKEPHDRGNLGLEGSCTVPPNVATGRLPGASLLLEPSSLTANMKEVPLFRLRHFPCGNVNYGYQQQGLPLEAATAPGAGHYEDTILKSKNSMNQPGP
T1 sequence (P29597 whole entry): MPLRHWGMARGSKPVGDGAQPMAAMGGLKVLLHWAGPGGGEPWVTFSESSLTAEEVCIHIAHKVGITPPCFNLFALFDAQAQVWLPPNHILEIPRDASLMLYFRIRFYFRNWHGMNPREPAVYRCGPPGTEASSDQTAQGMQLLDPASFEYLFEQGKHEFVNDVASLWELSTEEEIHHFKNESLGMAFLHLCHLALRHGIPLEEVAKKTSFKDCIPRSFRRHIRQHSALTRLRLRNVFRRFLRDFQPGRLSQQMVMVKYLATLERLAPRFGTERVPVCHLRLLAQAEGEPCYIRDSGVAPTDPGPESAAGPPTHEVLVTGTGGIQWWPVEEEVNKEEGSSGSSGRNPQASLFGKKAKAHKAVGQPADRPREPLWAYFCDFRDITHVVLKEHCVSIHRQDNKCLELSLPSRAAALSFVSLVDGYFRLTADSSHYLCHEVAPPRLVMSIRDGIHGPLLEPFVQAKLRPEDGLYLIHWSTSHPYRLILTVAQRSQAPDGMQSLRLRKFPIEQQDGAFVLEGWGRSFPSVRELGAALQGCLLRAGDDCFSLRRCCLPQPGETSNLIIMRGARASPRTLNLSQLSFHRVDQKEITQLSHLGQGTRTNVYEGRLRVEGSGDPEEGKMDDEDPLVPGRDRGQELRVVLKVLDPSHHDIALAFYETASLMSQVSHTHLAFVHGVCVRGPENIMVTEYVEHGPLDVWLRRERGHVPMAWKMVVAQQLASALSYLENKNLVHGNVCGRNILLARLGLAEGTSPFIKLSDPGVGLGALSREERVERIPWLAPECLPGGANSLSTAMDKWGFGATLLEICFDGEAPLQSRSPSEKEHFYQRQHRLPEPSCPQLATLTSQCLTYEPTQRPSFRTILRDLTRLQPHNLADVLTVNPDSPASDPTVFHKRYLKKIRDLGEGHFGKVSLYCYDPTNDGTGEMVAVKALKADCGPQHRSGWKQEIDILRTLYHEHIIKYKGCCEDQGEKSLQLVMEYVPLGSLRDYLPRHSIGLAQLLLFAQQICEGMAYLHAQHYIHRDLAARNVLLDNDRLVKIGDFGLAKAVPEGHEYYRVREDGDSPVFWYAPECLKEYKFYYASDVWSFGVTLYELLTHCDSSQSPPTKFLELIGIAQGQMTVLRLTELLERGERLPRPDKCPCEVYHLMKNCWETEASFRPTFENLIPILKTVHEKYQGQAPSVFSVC

On to `CNCc1ccc(-c2[nH]c3cc(F)cc4c3c2CCNC4=O)cc1` [Rucaparib], for which the percent of control binding at 10 µM on ALK(C1156Y) (setting [2]) worked out at 43%; in assay [1] (setting [2]) it was 7.6%; on PIP5K2B (setting [2]) it was 87%; on EPHB3 (setting [2]) it was 99%; at EPHB6 (setting [2]), 50%.
For the molecule `Cn1ncnc1[C@H]1c2n[nH]c(=O)c3cc(F)cc(c23)N[C@@H]1c1ccc(F)cc1` [Talazoparib], the percent of control binding at 10 µM on ALK(C1156Y) (setting [3]) was found to be 100%; in assay [1] (setting [3]), 84%; at PIP5K2B (setting [3]), 92%; on EPHB3 (setting [3]), 100%; on EPHB6 (setting [3]), 84%.
For `NC(=O)c1cccc2cn(-c3ccc([C@@H]4CCCNC4)cc3)nc12` [Niraparib], the percent of control binding at 10 µM was 88% at ALK(C1156Y) (setting [4]); 37% in assay [1] (setting [4]); 80% at PIP5K2B (setting [4]); 82% at EPHB3 (setting [4]); 34% at EPHB6 (setting [4]).
For `O=C(c1cc(Cc2n[nH]c(=O)c3ccccc23)ccc1F)N1CCN(C(=O)C2CC2)CC1` [Olaparib], the percent of control binding at 10 µM was determined as 88% on ALK(C1156Y) (setting [5]); 79% in assay [1] (setting [5]); 96% at PIP5K2B (setting [5]); 87% at EPHB3 (setting [5]); 81% on EPHB6 (setting [5]).

Source of the values: paper PMC7026418, “The kinase polypharmacology landscape of clinical PARP inhibitors” (Scientific Reports, 2020).
